Holding throughout (type): biochemical
Test [1] is described as follows: ABTS radical cation scavenging (decolorization) test. The conditions noted are these: 734 nm, 30 min. How it is done: (§1) The in vitro antioxidant ability of the compounds synthesized in this work was evaluated using three different assays, including (i) the ABTS radical cation reduction-decolorization test, which uses the technique of Khan et al. consisting of the reduction of the cation radical by an antioxidant through the discoloration measured by absorption at the wavelength of 734 nm; (ii) interaction with the stable free radical DPPH, based on Bassene’s method, in which the scavenging of DPPH radicals is carried out by a colorimetric method consisting of the reduction of the DPPH radical, determined by its absorption at a wavelength of 517 nm; and (iii) the FRAP test according to the protocol of Path Canada, based on the ability of a substance to reduce Fe^3+ ions to Fe^2+ ions, which, in the presence of 1,10-phenanthroline, form a red-orange complex whose optical density can be measured at 505 nm.
The modified technique by Khan et al. was used to scavenge ABTS^+• cation radicals through a discoloration test. In this test, potassium permanganate (KMnO4) or potassium persulphate (K2S2O8) reacts with ABTS to generate a blue-green ABTS^+• radical. Antioxidants reduce this radical, leading to a measurable colour change at 734 nm, proportional to the antioxidant concentration. The antioxidant capacity is assessed by comparing the intensity reduction of ABTS colour with that of a reference antioxidant, gallic acid. Stock and dilute solutions of synthetic compounds were prepared as detailed in §3.2.5.1. Diluted concentrations were (50, 25, 12.5, 6.25, 3.125, 1.5625 and 0.78125)/Mi in mM. The ABTS solution was obtained by mixing ABTS with K2S2O8, producing an intense blue colour. The ABTS^+• radical was generated by combining equal volumes of a 4.9 mM K2S2O8 solution and a 7 mM ABTS stock solution, stored in the dark at room temperature for 15 h before use. The 7 mM ABTS stock was then diluted 20 times with distilled water. A total of 25 µl of each dilution was added to wells along with 75 µl of 0.175 mM ABTS+ solution. After 30 min of incubation in the dark at room temperature, optical densities were measured at 734 nm. Negative controls contained the ABTS reagent without synthesized compounds, while positive controls used gallic acid at the same final concentrations as the compounds. Compounds were also tested alone to assess fluorescence. The reduction of ABTS results in a blue discoloration, with lower absorbance indicating higher antioxidant activity.
(§2) The percentages of scavenging or 50% reduction were calculated using gallic acid as a standard for 100% reduction. The concentration of radical scavengers needed to neutralize 50% of free radicals, referred to as SC50, was determined using GraphPad Prism 8.0.1 software (244).

A short description of test [2]: DPPH radical scavenging test. The following applies: 517 nm, 30 min. How it is done: as §1
The DPPH radical trapping protocol is based on Bassene’s method, modified for colorimetric analysis. DPPH is a stable purple organic nitrogen radical that absorbs light at 517 nm. When an anti-free radical agent is present, DPPH is reduced to a stable yellow compound, indicated by a loss of colour between 470 and 517 nm. A 0.02% DPPH solution was made with ethanol and stored in a sealed jar in the dark. Stock solutions of the synthesized compounds were prepared by dissolving 100 mg of each in 1 ml of DMSO, and the final concentration of DMSO concentration in the first well was 0.5%. These stocks were then diluted to achieve concentrations (500, 250, 125, 62.5, 31.25, 15.625 and 7.8125)/Mi in mM (Mi: molecular weight of each synthetic compound). Each dilution (25 µl) was put to the wells and 75 µl of the DPPH solution (0.02%) were added. Optical densities were measured at 517 nm after 30 min of incubation in the dark. The negative control used DPPH alone, while the positive control used gallic acid treated with solutions of the synthesized compounds at final concentrations (50, 25, 12.5, 6.25, 3.125, 1.5625 and 0.78125)/Mi in mM. Synthesized compounds were also tested alone to assess fluorescence.
Assays were performed in duplicate, and results were averaged. Percentage inhibition (PI), reflecting the antioxidant activity related to the DPPH˙ radical scavenging effect, was calculated using the following formula:
(PI)=Acontrol−Atest/Acontrol×100,
where Acontrol = absorbance of the control sample and Atest = absorbance of the tested sample.
as §2
(The DPPH test is a chemical assay of radical scavenging.)

A short description of test [3]: Ferric reducing antioxidant power (FRAP) test. The conditions noted are these: 505 nm. How it is done: as §1
The Fe^3+ reduction test followed Path Canada’s protocol with some modifications, assessing the reduction of Fe^3+ ions to Fe^2+ ions, which form a red-orange complex with 1,10-phenanthroline, measurable at 505 nm. The colour intensity correlates with the amount of Fe^3+ reduced. Four solutions were prepared: 1.2 mg ml^−1 of Fe^3+ solution (1.2 mg FeCl3 in 1 ml distilled H2O), 0.2% ortho-phenanthroline solution (200 mg powder in 100 ml ethanol), 2 mg ml^−1 of gallic acid solution (2 mg gallic acid in 1 ml distilled H2O) as a positive control, stock and dilute solutions of the synthesized compounds (see §3.2.5.1). In a 96-well microplate, 180 µl distilled H2O was added to the first column and 100 µl to others for dilution. Each compound solution (20 µl at 10 mg ml^−1) was mixed with 25 µl Fe^3+ solution and incubated for 15 min in the dark at room temperature. Afterwards, 50 µl ortho-phenanthroline solution was added, followed by another 15 min incubation. Optical density was measured at 505 nm using a TECAN M200 plate reader. The positive control was treated similarly to the DPPH and ABTS assays.
as §2

The mark [4] stands for this setting: first replicate, read-out: ABTS SC50(1).
Where [5] appears, read: second replicate, read-out: ABTS SC50(2).
Setting [6] is: first replicate, read-out: DPPH SC50(1).
The mark [7] stands for this setting: mean of duplicate, read-out: DPPH mean SC50.
The mark [8] stands for this setting: second replicate, read-out: DPPH SC50(2).
[9] abbreviates: first replicate, read-out: FRAP SC50(1).
Setting [10] is: mean of duplicate, read-out: FRAP mean SC50.
The mark [11] stands for this setting: second replicate, read-out: FRAP SC50(2).

In the case of `CCCCCCCC/C=C\CCCCCCCC(=O)OCCOC(=O)C(C)c1ccc(CC(C)C)cc1` (centres unmarked) [Compound 5b, 2-((2-(4-isobutylphenyl)propanoyl)oxy)ethyl oleate], the EC50 in test [1] (setting [4]) worked out at 2150 µM; in test [1] (mean of duplicate, read-out: ABTS mean SC50) it was 2130 µM; in test [1] (setting [5]), 2110 µM; in test [2] (setting [6]) it was 6440 µM; in test [2] (setting [7]), 6480 µM; in test [2] (setting [8]), 6520 µM. For the same compound, the EC50 in test [3] (setting [9]) was found to be 6160 µM; in test [3] (setting [10]) it was 6180 µM; in test [3] (setting [11]), 6200 µM.

Take `O=C(O)c1cc(O)c(O)c(O)c1` [gallic acid, reference compound]: the EC50 in test [1] (setting [4]) was 38 µM; in test [1] (setting [5]), 38 µM; in test [2] (setting [6]), 15 µM; in test [2] (setting [7]) it was 15 µM; in test [2] (setting [8]) it was 15 µM; in test [3] (setting [9]), 59 µM. The figures for the EC50 in test [3] (setting [10]) and in test [3] (setting [11]) were 61 µM and 62 µM, respectively.

Values taken from publication PMC12074795, “Synthesis and biological evaluation of esterified anti-inflammatory drugs with ethylene glycol linkers: cytotoxicity, anti-inflammatory and antioxidant properties” (Royal Society Open Science, 2025).
